Data on 8 compounds can be found in ChEMBL document CHEMBL1133787, “Solid-phase optimisation of achiral amidinobenzyl indoles as potent and selective factor Xa inhibitors” (Bioorg Med Chem Lett, 2001).

One assay concerns the target Coagulation factor X (Homo sapiens, UniProt P00742). Put plainly: Inhibitory activity against serine protease factor Xa (fXa) was determined.
The next assay concerns the target Prothrombin (Homo sapiens, UniProt P00734). As to the kind of experiment: Inhibitory activity against thrombin was determined.

Chain of Coagulation factor X (P00742 41-179 limits assumed): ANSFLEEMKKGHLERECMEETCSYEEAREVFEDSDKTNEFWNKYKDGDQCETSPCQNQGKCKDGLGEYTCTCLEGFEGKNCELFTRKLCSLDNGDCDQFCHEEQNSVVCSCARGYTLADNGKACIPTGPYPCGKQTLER
Chain of Coagulation factor X (P00742 235-488 limits assumed): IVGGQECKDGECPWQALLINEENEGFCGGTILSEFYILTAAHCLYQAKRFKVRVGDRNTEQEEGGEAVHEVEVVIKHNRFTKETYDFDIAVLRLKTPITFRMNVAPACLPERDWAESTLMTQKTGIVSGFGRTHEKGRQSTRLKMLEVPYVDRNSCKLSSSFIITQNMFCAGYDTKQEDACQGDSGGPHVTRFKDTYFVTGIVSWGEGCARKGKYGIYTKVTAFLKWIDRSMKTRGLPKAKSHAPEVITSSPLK

As to `C[N+](C)(C)c1ccc(CNC(=O)c2cc3cc(O)ccc3n2Cc2cccc(C(=N)N)c2)cc1`, the Ki at Coagulation factor X was found to be 28 nM; on Prothrombin, 12000 nM.

Regarding `Cc1cc(C)cc(CNC(=O)c2cc3c(O)cccc3n2Cc2cccc(C(=N)N)c2)c1`, the Ki on Coagulation factor X turned out to be 11 nM; at Prothrombin, 620 nM.

Compound `N=C(N)c1cccc(CNC(=O)c2cc3cc(N)ccc3n2Cc2cccc(C(=N)N)c2)c1` returned a Ki on Coagulation factor X of 84 nM. This counts as double-digit nanomolar.

`N=C(N)c1cccc(CNC(=O)c2cc3c(O)cccc3n2Cc2cccc(C(=N)N)c2)c1` displayed a Ki on Prothrombin of 3600 nM. This counts as single-digit micromolar.

On Coagulation factor X, `N=C(N)c1cccc(Cn2c(C(=O)NCc3cccc(Cl)c3)cc3c(O)cccc32)c1` displayed a Ki of 262 nM.

Regarding `N=C(N)c1cccc(Cn2c(C(=O)Nc3cc(Cl)cc(Cl)c3)cc3c(O)cccc32)c1`, the affinity at Coagulation factor X, expressed as Ki, was 798 nM.

Compound `N=C(N)c1cccc(Cn2c(C(=O)NCCc3cccc(Cl)c3)cc3c(O)cccc32)c1` registered a Ki at Coagulation factor X of 707 nM.

As to `N=C(N)c1cccc(Cn2c(C(=O)NCc3cc(Cl)cc(Cl)c3)cc3c(O)cccc32)c1`, the figures for the inhibition constant (Ki) at Coagulation factor X and on Prothrombin were 5 nM and 771 nM, respectively.
